In the supplement of paper PMC10307832:

Tests used:
Assay in all cases: relative viability (nuclei count vs DMSO), 5 days (fraction); higher = more cells survive
[1] = compound: COc1cccc2c1C(=O)c1c(O)c3c(c(O)c1C2=O)C[C@@](O)(C(=O)CO)C[C@@H]3O[C@H]1C[C@H](N)[C@H](O)[C@H](C)O1 [Doxorubicin] + Cc1cc(Nc2cc(N3CCN(C)CC3)nc(Sc3ccc(NC(=O)C4CC4)cc3)n2)n[nH]1 [Tozasertib] (partner 0.1 µM)
How it was run: (§1)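 Lung cancer cell lines, seeded in 1536-well plates, were treated the following day by pin tool with a single drug or with five library-drug doses (not always all listed) in √10 steps on top of a fixed anchor-drug dose. Cells were fixed and nuclei stained in one step after 5 days, and nuclei were counted. Relative viability is the nuclei count for treated wells divided by that for vehicle wells, reported as medians of duplicate plates.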

[2] = compound: COc1cccc2c1C(=O)c1c(O)c3c(c(O)c1C2=O)C[C@@](O)(C(=O)CO)C[C@@H]3O[C@H]1C[C@H](N)[C@H](O)[C@H](C)O1 [Doxorubicin] + N=C(N)NC(=N)NCCc1ccccc1 [Phenformin] (partner 250 µM)
How it was run: as §1

[3] = compound: COc1cccc2c1C(=O)c1c(O)c3c(c(O)c1C2=O)C[C@@](O)(C(=O)CO)C[C@@H]3O[C@H]1C[C@H](N)[C@H](O)[C@H](C)O1 [Doxorubicin] + Cc1nc(NC(=O)N2CCC[C@H]2C(N)=O)sc1-c1ccnc(C(C)(C)C(F)(F)F)c1 [Alpelisib] (partner 2 µM)
How it was run: as §1

[4] = compound: COc1cccc2c1C(=O)c1c(O)c3c(c(O)c1C2=O)C[C@@](O)(C(=O)CO)C[C@@H]3O[C@H]1C[C@H](N)[C@H](O)[C@H](C)O1 [Doxorubicin] + CC(=O)c1c(C)c2cnc(Nc3ccc(N4CCNCC4)cn3)nc2n(C2CCCC2)c1=O [Palbociclib] (partner 0.5 µM)
How it was run: as §1

Row | Cell Line | relative viability ([1]; first compound 0.001 µM) | relative viability ([1]; first compound 0.003162 µM) | relative viability ([1]; first compound 0.01 µM) | relative viability ([1]; first compound 0.03162 µM) | relative viability ([1]; first compound 0.1 µM) | relative viability ([2]; first compound 0.001 µM) | relative viability ([2]; first compound 0.003162 µM) | relative viability ([2]; first compound 0.01 µM) | relative viability ([2]; first compound 0.03162 µM) | relative viability ([2]; first compound 0.1 µM) | relative viability ([3]; first compound 0.001 µM) | relative viability ([3]; first compound 0.003162 µM) | relative viability ([3]; first compound 0.01 µM) | relative viability ([3]; first compound 0.03162 µM) | relative viability ([3]; first compound 0.1 µM) | relative viability ([4]; first compound 0.001 µM) | relative viability ([4]; first compound 0.003162 µM) | relative viability ([4]; first compound 0.03162 µM) | relative viability ([4]; first compound 0.1 µM) | relative viability ([4]; first compound 0.01 µM)
1 | NCI-H727 | 0.697 | 0.513 | 0.697 | 0.636 | 0.661 | 0.499 | 0.472 | 0.696 | 0.539 | 0.404 | 0.45 | 0.617 | 0.55 | 0.469 | 0.705 | 0.655 | 0.661 | 0.577 | 0.62 | –
2 | A-427 | 0.241 | 0.215 | 0.183 | 0.238 | 0.213 | 0.263 | 0.337 | 0.292 | 0.337 | 0.33 | 1.11 | 1.09 | 1.09 | 1.09 | 1.15 | 0.518 | 0.526 | 0.449 | 0.363 | 0.517
3 | EMC-BAC-2 | 0.321 | 0.26 | 0.308 | 0.25 | 0.216 | 0.621 | 0.462 | 0.416 | 0.265 | 0.206 | 0.799 | 0.88 | 0.679 | 0.734 | 0.717 | 0.524 | 0.465 | 0.383 | 0.403 | 0.442
4 | NCI-H647 | 0.305 | 0.181 | 0.431 | 0.18 | 0.125 | 0.539 | 0.494 | 0.432 | 0.231 | 0.103 | 1.15 | 1.08 | 0.98 | 0.288 | 0.163 | 0.403 | 0.492 | 0.15 | 0.239 | 0.412
5 | LCLC-97TM1 | 0.183 | 0.191 | 0.216 | 0.268 | 0.319 | 0.449 | 0.481 | 0.402 | 0.467 | 0.392 | 0.228 | 0.219 | 0.269 | 0.24 | 0.285 | 0.229 | 0.205 | 0.199 | 0.238 | 0.222
6 | HOP-62 | 0.376 | 0.414 | 0.402 | 0.352 | 0.405 | 0.654 | 0.625 | 0.631 | 0.542 | 0.484 | 0.873 | 1.26 | 1.15 | 0.879 | 0.934 | 0.421 | 0.444 | 0.434 | 0.486 | 0.494
7 | NCI-H1437 | 0.411 | 0.414 | 0.405 | 0.379 | 0.283 | 0.317 | 0.269 | 0.242 | 0.256 | 0.158 | 1.03 | 1 | 0.94 | 0.611 | 0.257 | 0.315 | 0.327 | 0.295 | 0.26 | 0.294
8 | NCI-H1755 | 0.605 | 0.556 | 0.576 | 0.552 | 0.598 | 0.612 | 0.642 | 0.618 | 0.675 | 0.626 | 0.918 | 0.992 | 0.719 | 0.947 | 0.94 | 0.473 | 0.481 | 0.474 | 0.468 | 0.434
9 | HARA | 0.112 | 0.126 | 0.241 | 0.128 | 0.145 | 0.424 | 0.616 | 0.444 | 0.409 | 0.439 | 0.816 | 0.845 | 0.76 | 0.782 | 0.812 | 0.234 | 0.256 | 0.236 | 0.263 | 0.259
10 | HCC-15 | – | 0.428 | 0.454 | 0.201 | 0.116 | – | 0.518 | 0.355 | 0.148 | 0.135 | 0.85 | 0.939 | 0.633 | 0.727 | 0.573 | 0.743 | 0.733 | 0.681 | 0.488 | 0.522
11 | LOU-NH91 | 0.638 | 0.644 | 0.71 | 0.638 | 0.615 | 0.505 | 0.695 | 0.783 | 0.698 | 0.591 | – | 0.707 | 0.701 | 0.589 | 0.398 | – | 0.459 | 0.526 | 0.416 | 0.564
12 | NCI-H23 | – | 0.452 | 0.362 | 0.389 | 0.397 | – | 0.84 | 0.806 | 0.58 | 0.486 | – | 0.716 | 0.555 | 0.517 | 0.662 | 0.503 | 0.568 | 0.428 | 0.44 | 0.479
13 | NCI-H1666 | 0.62 | 0.547 | 0.47 | 0.385 | 0.343 | 0.604 | 0.504 | 0.481 | 0.368 | 0.337 | 0.938 | 0.814 | 0.551 | 0.27 | 0.284 | – | 0.646 | 0.565 | 0.568 | 0.626
14 | NCI-H358 | 0.107 | 0.0976 | 0.0897 | 0.1 | 0.0933 | 0.299 | 0.307 | 0.176 | 0.0992 | 0.0721 | 0.796 | 0.916 | 0.569 | 0.19 | 0.154 | 0.129 | 0.141 | 0.0838 | 0.1 | 0.118
15 | NCI-H2085 | 0.815 | 0.829 | 0.919 | 0.796 | 0.829 | 0.733 | 0.709 | 0.653 | 0.545 | 0.478 | 0.936 | 1 | 0.992 | 0.739 | 0.686 | 0.472 | 0.458 | 0.53 | 0.512 | 0.461
16 | LCLC-103H | 0.531 | 0.411 | 0.465 | 0.414 | 0.529 | 0.341 | 0.37 | 0.345 | 0.293 | 0.354 | 0.917 | 0.993 | 0.981 | 1.06 | 1.08 | 0.468 | 0.508 | 0.457 | 0.41 | 0.5
